According to patent publication US20150307938A1, “METHOD TO IDENTIFY A NOVEL CLASS OF IMMUNOLOGIC ADJUVANTS” (Lancell, L.L.C., priority 2011, published 2015):

Tested on: skin
Assay: Affymetrix microarray of skin, DBP-4 hr and analogs vs. untreated; gene selection by log-2 fold change, Wilcoxon, Kendall tau (Tables 8, 9)
Type: in vivo, mouse
Settings: for Kendall: Kendall tau, expression vs. outcome

## CCCCOC(=O)c1ccccc1C(=O)OCCCC [DBP, dibutylphthalate]
Gene #557 Il10ra NM_008348_at, DBP-4 hr vs. untreated
  Wilcoxon: No
Gene #557 Il10ra NM_008348_at
  Kendall: Yes
Gene #558 Il7 NM_008371_at, DBP-4 hr vs. untreated
  Wilcoxon: No
Gene #558 Il7 NM_008371_at
  Kendall: Yes
Gene #559 Kif3a NM_008443_at, DBP-4 hr vs. untreated
  Wilcoxon: No
Gene #559 Kif3a NM_008443_at
  Kendall: Yes
Gene #560 Lmo2 NM_008505_at, DBP-4 hr vs. untreated
  Wilcoxon: No
Gene #560 Lmo2 NM_008505_at
  Kendall: Yes
Gene #561 Mcl1 NM_008562_at, DBP-4 hr vs. untreated
  Wilcoxon: No
Gene #561 Mcl1 NM_008562_at
  Kendall: Yes
Gene #562 Meox2 NM_008584_at, DBP-4 hr vs. untreated
  Wilcoxon: No
Gene #562 Meox2 NM_008584_at
  Kendall: Yes
Gene #563 Mtf1 NM_008636_at, DBP-4 hr vs. untreated
  Wilcoxon: No
Gene #563 Mtf1 NM_008636_at
  Kendall: Yes
Gene #564 Mut NM_008650_at, DBP-4 hr vs. untreated
  Wilcoxon: No
Gene #564 Mut NM_008650_at
  Kendall: Yes
Gene #565 Ppp1r15a NM_008654_at, DBP-4 hr vs. untreated
  Wilcoxon: No
Gene #565 Ppp1r15a NM_008654_at
  Kendall: Yes
Gene #566 Ncf4 NM_008677_at, DBP-4 hr vs. untreated
  Wilcoxon: No
Gene #566 Ncf4 NM_008677_at
  Kendall: Yes
Gene #567 Nos3 NM_008713_at, DBP-4 hr vs. untreated
  Wilcoxon: No
Gene #567 Nos3 NM_008713_at
  Kendall: Yes
Gene #568 Pigf NM_008838_at, DBP-4 hr vs. untreated
  Wilcoxon: No
Gene #568 Pigf NM_008838_at
  Kendall: Yes
Gene #569 Map2k3 NM_008928_at, DBP-4 hr vs. untreated
  Wilcoxon: No
Gene #569 Map2k3 NM_008928_at
  Kendall: Yes
Gene #570 Rad50 NM_009012_at, DBP-4 hr vs. untreated
  Wilcoxon: No
Gene #570 Rad50 NM_009012_at
  Kendall: Yes
Gene #571 Ralgds NM_009058_at, DBP-4 hr vs. untreated
  Wilcoxon: No
Gene #571 Ralgds NM_009058_at
  Kendall: Yes
Gene #572 Hltf NM_009210_at, DBP-4 hr vs. untreated
  Wilcoxon: No
Gene #572 Hltf NM_009210_at
  Kendall: Yes
Gene #573 Serpina3n NM_009252_at, DBP-4 hr vs. untreated
  Wilcoxon: No
Gene #573 Serpina3n NM_009252_at
  Kendall: Yes
Gene #574 Tnfaip1 NM_009395_at, DBP-4 hr vs. untreated
  Wilcoxon: No
Gene #574 Tnfaip1 NM_009395_at
  Kendall: Yes
Gene #575 Tuba4a NM_009447_at, DBP-4 hr vs. untreated
  Wilcoxon: No
Gene #575 Tuba4a NM_009447_at
  Kendall: Yes
Gene #576 Zfp101 NM_009542_at, DBP-4 hr vs. untreated
  Wilcoxon: No
Gene #576 Zfp101 NM_009542_at
  Kendall: Yes
Gene #577 Parp2 NM_009632_at, DBP-4 hr vs. untreated
  Wilcoxon: No
Gene #577 Parp2 NM_009632_at
  Kendall: Yes
Gene #578 Aldh2 NM_009656_at, DBP-4 hr vs. untreated
  Wilcoxon: No
Gene #578 Aldh2 NM_009656_at
  Kendall: Yes
Gene #579 Cebpb NM_009883_at, DBP-4 hr vs. untreated
  Wilcoxon: No
Gene #579 Cebpb NM_009883_at
  Kendall: Yes
Gene #580 Bcar1 NM_009954_at, DBP-4 hr vs. untreated
  Wilcoxon: No
Gene #580 Bcar1 NM_009954_at
  Kendall: Yes
Gene #581 Eci1 NM_010023_at, DBP-4 hr vs. untreated
  Wilcoxon: No
Gene #581 Eci1 NM_010023_at
  Kendall: Yes
Gene #582 Ddt NM_010027_at, DBP-4 hr vs. untreated
  Wilcoxon: No
Gene #582 Ddt NM_010027_at
  Kendall: Yes
Gene #583 Egr2 NM_010118_at, DBP-4 hr vs. untreated
  Wilcoxon: No
Gene #583 Egr2 NM_010118_at
  Kendall: Yes
Gene #584 F2r NM_010169_at, DBP-4 hr vs. untreated
  Wilcoxon: No
Gene #584 F2r NM_010169_at
  Kendall: Yes
Gene Abhd6, NM_025341_at, DBP-4 hr vs. untreated
  Wilcoxon: Abhd6: No
Gene Abhd6, NM_025341_at, gene expression vs. output
  Kendall: Abhd6: Yes
Gene Acad8, NM_025862_at, DBP-4 hr vs. untreated
  Wilcoxon: Acad8: No
Gene Acad8, NM_025862_at, gene expression vs. output
  Kendall: Acad8: Yes
Gene Ak2, NM_016895_at, DBP-4 hr vs. untreated
  Wilcoxon: Ak2: No
Gene Ak2, NM_016895_at, gene expression vs. output
  Kendall: Ak2: Yes
Gene Akr1e1, NM_018859_at, DBP-4 hr vs. untreated
  Wilcoxon: Akr1e1: No
Gene Akr1e1, NM_018859_at, gene expression vs. output
  Kendall: Akr1e1: Yes
Gene Avpr1a, NM_016847_at, DBP-4 hr vs. untreated
  Wilcoxon: Avpr1a: No
Gene Avpr1a, NM_016847_at, gene expression vs. output
  Kendall: Avpr1a: Yes
Gene B4galt1, NM_022305_at, DBP-4 hr vs. untreated
  Wilcoxon: B4galt1: No
Gene B4galt1, NM_022305_at, gene expression vs. output
  Kendall: B4galt1: Yes
Gene Bphl, NM_026512_at, DBP-4 hr vs. untreated
  Wilcoxon: Bphl: No
Gene Bphl, NM_026512_at, gene expression vs. output
  Kendall: Bphl: Yes
Gene Cdkl2, NM_016912_at, DBP-4 hr vs. untreated
  Wilcoxon: Cdkl2: No
Gene Cdkl2, NM_016912_at, gene expression vs. output
  Kendall: Cdkl2: Yes
Gene Cep70, NM_023873_at, DBP-4 hr vs. untreated
  Wilcoxon: Cep70: No
Gene Cep70, NM_023873_at, gene expression vs. output
  Kendall: Cep70: Yes
Gene Cirh1a, NM_011574_at, DBP-4 hr vs. untreated
  Wilcoxon: Cirh1a: No
Gene Cirh1a, NM_011574_at, gene expression vs. output
  Kendall: Cirh1a: Yes
Gene Clec14a, NM_025809_at, DBP-4 hr vs. untreated
  Wilcoxon: Clec14a: No
Gene Clec14a, NM_025809_at, gene expression vs. output
  Kendall: Clec14a: Yes
Gene Commd4, NM_025417_at, DBP-4 hr vs. untreated
  Wilcoxon: Commd4: No
Gene Commd4, NM_025417_at, gene expression vs. output
  Kendall: Commd4: Yes
Gene Cr1l, NM_013499_at, DBP-4 hr vs. untreated
  Wilcoxon: Cr1l: No
Gene Cr1l, NM_013499_at, gene expression vs. output
  Kendall: Cr1l: Yes
Gene Cyth1, NM_011180_at, DBP-4 hr vs. untreated
  Wilcoxon: Cyth1: No
Gene Cyth1, NM_011180_at, gene expression vs. output
  Kendall: Cyth1: Yes
Gene D16Ertd472e, NM_025967_at, DBP-4 hr vs. untreated
  Wilcoxon: D16Ertd472e: No
Gene D16Ertd472e, NM_025967_at, gene expression vs. output
  Kendall: D16Ertd472e: Yes
Gene Dcxr, NM_026428_at, DBP-4 hr vs. untreated
  Wilcoxon: Dcxr: No
Gene Dcxr, NM_026428_at, gene expression vs. output
  Kendall: Dcxr: Yes
Gene Dda1, NM_025600_at, DBP-4 hr vs. untreated
  Wilcoxon: Dda1: No
